Data published in ChEMBL document CHEMBL3526109 (Drug Metab Dispos, 2011).

How the values were obtained:
Conditions in all cases: in vivo
[1] = Drug excretion in cynomolgus monkey urine treated with [14C]brivanib alaninate at 10 mg/kg, po administered as single dose via gavage by HPLC analysis; type: ADME, organism-based, Macaca fascicularis
[2] = Drug excretion in Sprague-Dawley rat feces treated with [14C]brivanib alaninate at 100 mg/kg, po administered as single dose via gavage by HPLC analysis; type: ADME, organism-based
Plasma [3] = experiment: Drug level in cynomolgus monkey plasma assessed as compound formation treated with [14C]brivanib alaninate at 10 mg/kg, po administered as single dose via gavage measured after 12 hrs by HPLC analysis; type: ADME, organism-based, Macaca fascicularis
[4] = Drug excretion in human feces treated with [14C]brivanib alaninate at 800 mg, po administered as single dose […] by HPLC analysis; type: ADME, organism-based
Plasma [5] = experiment: Drug level in human plasma assessed as compound formation treated with [14C]brivanib alaninate at 800 mg, po administered as single dose via gavage measured after 12 hrs by HPLC analysis; type: ADME, organism-based
Plasma [6] = experiment: Drug level in cynomolgus monkey plasma assessed as compound formation treated with [14C]brivanib alaninate at 10 mg/kg, po administered as single dose via gavage measured after 1 hr by HPLC analysis; type: ADME, organism-based, Macaca fascicularis
Plasma [7] = experiment: Drug level in Sprague-Dawley rat plasma assessed as compound formation treated with [14C]brivanib alaninate at 100 mg/kg, po administered as single dose via gavage measured after 6 hrs by HPLC analysis; type: ADME, organism-based
[8] = Drug excretion in bile duct-cannulated cynomolgus monkey bile treated with [14C]brivanib alaninate at 10 mg/kg, po administered as single dose via gavage by HPLC analysis; type: ADME, organism-based, Macaca fascicularis
[9] = Drug excretion in human urine treated with [14C]brivanib alaninate at 800 mg, po administered as single dose […] by HPLC analysis; type: ADME, organism-based
Plasma [10] = experiment: Drug level in cynomolgus monkey plasma assessed as compound formation treated with [14C]brivanib alaninate at 10 mg/kg, po administered as single dose via gavage measured after 6 hrs by HPLC analysis; type: ADME, organism-based, Macaca fascicularis
Plasma [11] = experiment: Drug level in cynomolgus monkey plasma assessed as compound formation treated with [14C]brivanib alaninate at 10 mg/kg, po administered as single dose via gavage measured after 2 hrs by HPLC analysis; type: ADME, organism-based, Macaca fascicularis
Plasma [12] = experiment: Drug level in cynomolgus monkey plasma assessed as compound formation treated with [14C]brivanib alaninate at 10 mg/kg, po administered as single dose via gavage measured after 4 hrs by HPLC analysis; type: ADME, organism-based, Macaca fascicularis
Plasma [13] = experiment: Drug level in human plasma assessed as compound formation treated with [14C]brivanib alaninate at 800 mg, po administered as single dose via gavage measured after 4 hrs by HPLC analysis; type: ADME, organism-based
Plasma [14] = experiment: Drug level in human plasma assessed as compound formation treated with [14C]brivanib alaninate at 800 mg, po administered as single dose via gavage measured after 2 hrs by HPLC analysis; type: ADME, organism-based
[15] = Drug excretion in bile duct-cannulated rat bile treated with [14C]brivanib alaninate at 100 mg/kg, po administered as single dose via gavage by HPLC analysis; type: ADME, organism-based
Plasma [16] = experiment: Drug level in Sprague-Dawley rat plasma assessed as compound formation treated with [14C]brivanib alaninate at 100 mg/kg, po administered as single dose via gavage measured after 1 hr by HPLC analysis; type: ADME, organism-based
[17] = Drug excretion in cynomolgus monkey feces treated with [14C]brivanib alaninate at 10 mg/kg, po administered as single dose via gavage by HPLC analysis; type: ADME, organism-based, Macaca fascicularis
Plasma [18] = experiment: Drug level in Sprague-Dawley rat plasma assessed as compound formation treated with [14C]brivanib alaninate at 100 mg/kg, po administered as single dose via gavage measured after 2 hrs by HPLC analysis; type: ADME, organism-based
Plasma [19] = experiment: Drug level in human plasma assessed as compound formation treated with [14C]brivanib alaninate at 800 mg, po administered as single dose via gavage measured after 1 hr by HPLC analysis; type: ADME, organism-based
Plasma [20] = experiment: Drug level in human plasma assessed as compound formation treated with [14C]brivanib alaninate at 800 mg, po administered as single dose via gavage measured after 8 hrs by HPLC analysis; type: ADME, organism-based
[21] = Drug excretion in Sprague-Dawley rat urine treated with [14C]brivanib alaninate at 100 mg/kg, po administered as single dose via gavage by HPLC analysis; type: ADME, organism-based

| Compound recovery [1] | Compound recovery [2] | Compound recovery (Plasma [3]) | Compound recovery [4] | Compound recovery (Plasma [5]) | Compound recovery (Plasma [6]) | Compound recovery (Plasma [7]) [%] | Compound recovery [8] | Compound recovery [9] | Compound recovery (Plasma [10]) | Compound recovery (Plasma [11]) | Compound recovery (Plasma [12]) | Compound recovery (Plasma [13]) | Compound recovery (Plasma [14]) | Compound recovery [15] | Compound recovery (Plasma [16]) [%] | Compound recovery [17] | Compound recovery (Plasma [18]) [%] | Compound recovery (Plasma [19]) | Compound recovery (Plasma [20]) | SMILES | other results |
| --- | --- | --- | --- | --- | --- | --- | --- | --- | --- | --- | --- | --- | --- | --- | --- | --- | --- | --- | --- | --- | --- |
| metabolite_not_detected | 42.8% | metabolite_not_detected | metabolite_not_detected | metabolite_not_detected | metabolite_not_detected | 1.7 | 0.4% | metabolite_not_detected | metabolite_not_detected | metabolite_not_detected | metabolite_not_detected | metabolite_not_detected | metabolite_not_detected | 10.8% | 2.4 | 1.8% | 1.9 | metabolite_not_detected | metabolite_not_detected | Cc1cc2c(F)c(Oc3ncnn4cc(O)c(C)c34)ccc2[nH]1 | – |
| metabolite_not_detected | metabolite_not_detected | – | metabolite_not_detected | – | – | – | 0.4% | metabolite_not_detected | – | – | – | – | – | metabolite_not_detected | – | metabolite_not_detected | – | – | – | Cc1c(OS(=O)(=O)O)cn2ncnc(Oc3ccc4[nH]c(CO)cc4c3F)c12 | Compound recovery [21]: metabolite_not_detected |
| 0.8% | metabolite_not_detected | metabolite_not_detected | metabolite_not_detected | 1.2% | metabolite_not_detected | 9.1 | metabolite_not_detected | 0.8% | metabolite_not_detected | metabolite_not_detected | metabolite_not_detected | metabolite_not_detected | 3% | 27.4% | 5.1 | metabolite_not_detected | 6.5 | 0.8% | 2% | Cc1cc2c(F)c(Oc3ncnn4cc(O[C@@H]5O[C@H](C(=O)O)[C@@H](O)[C@H](O)[C@H]5O)c(C)c34)ccc2[nH]1 | – |
| metabolite_not_detected | 1.5% | – | metabolite_not_detected | – | – | – | metabolite_not_detected | metabolite_not_detected | – | – | – | – | – | metabolite_not_detected | – | metabolite_not_detected | – | – | – | Cc1c(O)cn2ncnc(Oc3ccc4[nH]c(CO)cc4c3F)c12 | Compound recovery [21]: 0.4% |
